*1 amine or outer side, *2 acyl side, *3 side chain or, on linkers, in order; H or OH if unused. Where a SMILES comes first, the peptide text is derived from it. Side-chain parts run from the residue outwards. The star is where a group is joined. γGlu = O=C(O)[C@H](CCC(=O)[*:2])N[*:1]; Palmitoyl = CCCCCCCCCCCCCCCC(=O)*
How the values were obtained:
[1] = test system: ICR mice; test: Repeated toxicity test of ACP52CGK; assay type: in vivo, mouse; conditions: 100 mpk intravenously daily for 4 weeks, n = 6/group; brain, heart, liver
Procedure: To assess the toxicity of ACP52C, twelve 6‐weeks‐old ICR mice (six males and six females) were divided into three groups, each containing two mice: one group received a saline, another received 100 mg kg^−1 of ACP52C, and the third received 1000 mg kg^−1 of ACP52C. For each group, one mouse was intravenously injected once, and the other one was intravenously injected twice with a four‐day interval between injections. At the time of sacrifice, major organs were analyzed by H&E staining. To assess the repeated toxicity of ACP52CGK, twenty‐four 6‐weeks‐old ICR mice (twelve males and twelve females) were used, dividing them into two groups of six mice each: one group received saline, and the other received 100 mg kg^−1 of ACP52CGK. […] Body weight, water and feed consumption were measured every 3 days after injection. […] Major organs were weighed and analyzed by H&E staining. H&E‐stained tissue sections were analyzed and photographed, and the representative histological images were recorded. […]
Repeated toxicity test of ACP52CGK were analyzed in ICR mice by intravenous injection of 100 mpk of ACP52CGK daily for 4 weeks (n = 6/group). A-C) Body weight (A), water consumption (B), and food consumption (C) were measured once every 3 days after injection. D-F) Major organ weight (D), CBC (E), and blood chemistry (F) were measured after sacrifice. Data are expressed as means ± SD in (B-F). […]

[2] = Solubility of peptides; assay type: physicochemical
Excerpt: The peptides listed in Table S3 (Supporting Information) were synthesized by either ANYGEN (Kwangju, Korea) or PepMic (Suzhou, China) and achieved purity of over 95%. These peptides were synthesized using the Solid‐phase method based on the Fmoc strategy, using an Applied Biosystems 431A peptide synthesizer on a 0.25‐mmol scale. To enhance the stability of ACP52C, saturated C16 palmitic acid, DHA, and E‐pal were utilized. These fatty acids were linked to the lysine (K) residue at the N‐terminal of ACP52C or within the ACP52 and iRGD region through a covalent bond formed between the εK NH3+ and αE or γE COO‐ groups. After synthesis, the final product was prepared through lyophilization and appeared as a white amorphous powder for both ACP52C and its derivatives. To confirm their quality, the purity and molecular weight of the final product were evaluated using amino acid analysis, analytical RP‐HPLC, and MALDI‐MS. […] FQI1, Sorafenib, and cisplatin were purchased from Sigma–Aldrich (SML0413, SML2653) or Selleckchem (S1166), respectively.
Figure S21. […]
A) A schematic representation depicting the structural diagrams, molecular weights, and minimum solubilities (in water or saline) of ACP52C and its derivatives. […] Tumor weight in the sacrificed mice after completion of drug administration schedule was expressed as means ± SE. […]

[3] = test system: human stem cells (hMSCs and hESCs), mouse embryonic fibroblasts (MEFs), and human non‐transformed cell lines (BEAS‐2B and MCF10A); test: MTT growth inhibition in stem and non‐transformed cells; assay type: cell-based; conditions: concentration of 1 mM
Procedure: Various cell lines were treated with peptides, either alone or in combination with the CASP2 inhibitor (Ac‐VDVAD‐CHO; Enzo ALX‐260‐058‐M001) at various concentrations for 4 days. Cell viability was assessed on day 2 or day 4 using MTT (3‐(4,5‐dimethylthiazol‐2‐yl)‐2,5‐diphenyltetrazolium bromide; Sigma–Aldrich, M2128) assay. In brief, fresh cells were seeded in flat‐bottomed 96‐well tissue culture plates at appropriate concentrations for each cell line per well using complete culture medium. The cells were incubated in 100 µL of culture medium containing various concentration of chemicals or peptides at 37 °C for 0 to 96 h. A solution of MTT (5 mg mL^−1) was added to the culture medium, and the cells were further incubated at 37 °C for an additional 3 h. The MTT medium was then removed, and the formazan crystals were dissolved in DMSO (100 µL per well). The formazan concentration was measured spectrophotometrically at 490 nm using a Varioskan Flash Spectral Scanning Multimode Reader (Thermo Scientific Korea). Nonlinear regression curves for growth inhibition and GI50 values for each cell line were estimated from independent replicates using the Prism (version 6) software (GraphPad Software Inc.)

[4] = target: T1, endogenous nuclear and cytoplasmic CP2c complexes (Homo sapiens, UniProt Q12800); test: DSP crosslinking‐Western blot of endogenous CP2c complexes; assay type: cell-based; conditions: DSP XL‐WB and WB with new protein synthesis inhibition
T1 construct: dissociated all endogenous nuclear and cytoplasmic CP2c complexes; endogenous in cells
Procedure: Cell extracts were prepared using lysis buffer (50 mM Tris‐HCl, pH 7.4, 150 mM NaCl, 1 mM EDTA, 0.1% triton X‐100, and 1 mM PMSF). The cell extracts were separated by SDS‐PAGE and electro‐blotted onto polyvinylidene difluoride (PVDF) membranes (GE healthcare, 10600069). For slot blotting, the cell extracts were blotted onto nitrocellulose (NC) membranes (GE healthcare, 10484059) using a Bio‐Dot (Bio‐Rad, 1706542). Typically, membranes were blocked with 5% non‐fat dry milk in a solution of 0.1% Tween 20, and with 5% BSA in case of biotin blotting. Membranes were incubated overnight at 4 °C with appropriate dilutions of the primary antibodies (listed in Table S4, Supporting Information) after blocking. The blots were incubated for 1 h at room temperature with the respective HRP‐conjugated secondary antibodies (listed in Table S4, Supporting Information). Polyclonal ACTB antibody was used as a loading control for WB. […] Relative amounts of proteins were quantified using Image J (ver. 1.51) program.
To determine DNA‐free CP2c containing complexes, live cells were washed twice with the 2.5 mM sodium phosphate buffer, pH 7.4, crosslinked using 2 mM DSP in PBS for 3 h on ice, and crosslinking was terminated with 50 mM Tris‐HCl, pH 7.4, for 15 min at room temperature. […] Crosslinked samples were analyzed by pulldown assay or mass spectrometry.

T1 sequence (Q12800 whole entry, one chain of several): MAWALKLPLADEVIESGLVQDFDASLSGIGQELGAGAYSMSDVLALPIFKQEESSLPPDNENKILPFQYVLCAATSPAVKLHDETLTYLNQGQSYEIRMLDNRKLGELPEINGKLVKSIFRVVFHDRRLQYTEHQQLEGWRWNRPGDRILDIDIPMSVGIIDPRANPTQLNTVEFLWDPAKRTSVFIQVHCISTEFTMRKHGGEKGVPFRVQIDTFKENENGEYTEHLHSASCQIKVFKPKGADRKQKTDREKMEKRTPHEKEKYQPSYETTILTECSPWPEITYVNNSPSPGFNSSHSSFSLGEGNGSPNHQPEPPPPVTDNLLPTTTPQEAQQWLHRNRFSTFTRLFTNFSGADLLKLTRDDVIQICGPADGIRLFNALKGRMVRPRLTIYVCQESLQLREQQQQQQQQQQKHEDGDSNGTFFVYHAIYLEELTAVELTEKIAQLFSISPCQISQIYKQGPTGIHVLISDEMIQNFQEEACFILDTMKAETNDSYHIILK

SMILES | adverse effects in normal organs [1] | concentration at which completely dissolved [2] | growth inhibition [3] | dissociation of endogenous CP2c complexes [4]
CCCCCCCCCCCCCCCC(=O)N[C@@H](CCC(=O)NCCCC[C@H](NC(=O)CNC(=O)CNC(=O)[C@@H]1CCCN1C(=O)[C@H](CCCNC(=N)N)NC(=O)[C@H](CCC(N)=O)NC(=O)[C@@H]1CCCN1C(=O)[C@H](Cc1ccc(O)cc1)NC(=O)[C@H](CC(N)=O)NC(C)=O)C(=O)NCC(=O)NCC(=O)N[C@@H](CS)C(=O)N[C@@H](CCCNC(=N)N)C(=O)NCC(=O)N[C@@H](CC(=O)O)C(=O)N[C@@H](CCCCN)C(=O)NCC(=O)N1CCC[C@H]1C(=O)N[C@@H](CC(=O)O)C(=O)N[C@@H](CS)C(N)=O)C(=O)O [ACP52CGK] (Ac-NYPQRPGGK([γGlu-Palmitoyl])GGCRGDKGPDC-NH2) | did not induce any adverse effects | ≥ 100000 µg/mL | – | –
CC(=O)N[C@@H](CC(N)=O)C(=O)N[C@@H](Cc1ccc(O)cc1)C(=O)N1CCC[C@H]1C(=O)N[C@@H](CCC(N)=O)C(=O)N[C@@H](CCCNC(=N)N)C(=O)N1CCC[C@H]1C(=O)N[C@@H](CS)C(=O)N[C@@H](CCCNC(=N)N)C(=O)NCC(=O)N[C@@H](CC(=O)O)C(=O)N[C@@H](CCCCN)C(=O)NCC(=O)N1CCC[C@H]1C(=O)N[C@@H](CC(=O)O)C(=O)N[C@@H](CS)C(N)=O [ACP52C] (Ac-NYPQRPCRGDKGPDC-NH2) | – | – | minimal to zero growth inhibition | readily dissociated all endogenous nuclear and cytoplasmic CP2c complexes
